Measurements: patent publication US8445409B2, “Use of 5-benzyloxymethyl-1,2-isoxazoline derivatives as a herbicide” (Moghu Research Center Ltd., priority 2007, dated 2013)

Legend:
[1] = tested on: Zoysiagrass; test: Selective control of grassy weeds in turf (Example 3-1), visual rating; type: in vivo; details: four weeks after spray, 0-100 scale (100=completely killed)
Description: (§1) Commercially available sod mats of zoysiagrass and bentgrass, Kentucky bluegrass, and perennial ryegrass were purchased. After cutting each turf sod mat in a size of 10 cm×20 cm, it was transplanted to a rectangular plastic pot having a surface area of 300 cm^2 wherein mixed soils including blend of a bed soil (Boonong, Horticultural Nursery Soil No. 3) and sandy loam soil were filled (mixing ratio, 1:1). After transplanting, the grass was mowed (0.5˜1.0 cm in height) once a week, and kept for one month in a greenhouse maintained at 25˜30° C. (day) or 15˜25° C. (night). Then three strips of 1 cm width were removed by excision with a scissor. The open space was filled with a new soil, and seeds of large crabgrass, annual bluegrass, or goosegrass were sown. The pots were kept in a greenhouse. When the said weeds were grown up to the 3 leaf stage, another set was prepared in the same method. The first set represented post-emergence (POST) and the second set represented pre-emergence (PRE) stages of the weeds (large crabgrass, annual bluegrass, goosegrass). Then the test compound was applied at 0.25, 0.5. 1.0, 2.0, and 4.0 kg/ha. Spray was made by a track sprayer equipped with a Teejet 8002 nozzle. Spray volume was adjusted to 2,000 L/ha. The spray solution was prepared by dissolving the “test substance” in acetone and adding the same volume of 0.2% (v/v) Tween 20 aqueous solution. Four weeks after the spray of the test substance, phytotoxicity to the turfgrass and herbicidal activity to the said weeds were visually evaluated based on 0 to 100 scale (0: no phytotoxic effect, 100: completely killed). The test was conducted in a completely randomized design with 3 replicates.

[2] = tested on: Kentucky bluegrass; test: as above; type: in vivo; details: four weeks after spray, 0-100 scale (100=completely killed)
Description: as §1

[3] = tested on: Goosegrass; test: as above; type: in vivo; details: four weeks after spray, 0-100 scale (100=completely killed); for Herbicidal activity, visual: Weeds GSG (POST): 3 leaf stage
Description: as §1

[4] = tested on: Annual bluegrass; test: as above; type: in vivo; details: four weeks after spray, 0-100 scale (100=completely killed); for Herbicidal activity, visual: Weeds ABG (POST): 3 leaf stage
Description: as §1

[5] = tested on: Large crabgrass; test: as above; type: in vivo; details: four weeks after spray, 0-100 scale (100=completely killed); for Herbicidal activity, visual: Weeds LCG (POST): 3 leaf stage
Description: as §1

[6] = tested on: Perennial ryegrass; test: as above; type: in vivo; details: four weeks after spray, 0-100 scale (100=completely killed)
Description: as §1

[7] = tested on: Bentgrass; test: as above; type: in vivo; details: four weeks after spray, 0-100 scale (100=completely killed)
Description: as §1

[8] = tested on: Zoysiagrass; test: Turfgrass safety test (sod mat pots), visual phytotoxicity; type: in vivo, Zoysia japonica; details: in vivo
Description: Commercially available sod mats of zoysiagrass and bentgrass, Kentucky bluegrass, and perennial ryegrass were purchased. After cutting each turf sod mat in a size of 10 cm×20 cm, it was transplanted to a rectangular plastic pot having a surface area of 300 cm^2 wherein mixed soils including blend of a bed soil (Boonong, Horticultural Nursery Soil No. 3) and sandy loam soil were filled (mixing ratio, 1:1). After transplanting, the grass was mowed (0.5˜1.0 cm in height) once a week, and kept for one month in a greenhouse maintained at 25˜30° C. (day) or 15˜25° C. (night), then the test substance of the present invention was applied at dosage of 4, 2, 1 and 0.5 kg/ha. As a reference, Dithiopyr (32% EC, manufactured by Dongbu Hannong Chemical Company, KOREA) was applied at the recommended rate of 0.48 kg/ha, or twice or quadruple amount thereof, i.e., 0.96 and 1.92 kg/ha, respectively. Spray was made by a track sprayer equipped with a Teejet 8002 nozzle. Spray volume was adjusted to 2,000 L/ha, which was a typical value for an Asian (Korea and Japan) golf course. The spray solution was prepared by dissolving the “test substance” in acetone and adding the same volume of 0.2% (v/v) Tween 20 aqueous solution. Two, four or six weeks after the spray of the test substance, phytotoxicity to the turfgrass were visually evaluated based on 0 to 10 scale (0: no phytotoxic effect, 10: completely killed). The test was conducted in a randomized block design with a three replicates and the results were summarized in the following Table 2 is an average value of the replicates.

Cc1ccsc1C1=NOC(C)(COCc2c(F)cccc2F)C1 (stereo not drawn) [test substance, 5-(2,6-difluorobenzyl)oxymethyl-5-methyl-3-(4-methylthiophen-5-yl)-1,2-isoxazoline]
Phytotoxicity, visual: Turfgrass ZSG ([1]; 0.25 kg/ha): 0 | Phytotoxicity, visual: Turfgrass ZSG ([1]; 0.5 kg/ha): 0 | Phytotoxicity, visual: Turfgrass ZSG ([1]; 1 kg/ha): 0 | Phytotoxicity, visual: Turfgrass ZSG ([1]; 2 kg/ha): 0 | Phytotoxicity, visual: Turfgrass ZSG ([1]; 4 kg/ha): 12 | Phytotoxicity, visual: Turfgrass KBG ([2]; 0.25 kg/ha): 0 | Phytotoxicity, visual: Turfgrass KBG ([2]; 0.5 kg/ha): 0 | Phytotoxicity, visual: Turfgrass KBG ([2]; 1 kg/ha): 0 | Phytotoxicity, visual: Turfgrass KBG ([2]; 2 kg/ha): 0 | Phytotoxicity, visual: Turfgrass KBG ([2]; 4 kg/ha): 21 | Herbicidal activity, visual: Weeds GSG (POST) ([3]; 0.25 kg/ha): 85 | Herbicidal activity, visual: Weeds GSG (PRE) ([3]; 0.25 kg/ha): 100 | Herbicidal activity, visual: Weeds GSG (POST) ([3]; 0.5 kg/ha): 95 | Herbicidal activity, visual: Weeds GSG (PRE) ([3]; 0.5 kg/ha): 100 | Herbicidal activity, visual: Weeds GSG (POST) ([3]; 1 kg/ha): 100 | Herbicidal activity, visual: Weeds GSG (PRE) ([3]; 1 kg/ha): 100 | Herbicidal activity, visual: Weeds GSG (POST) ([3]; 2 kg/ha): 100 | Herbicidal activity, visual: Weeds GSG (PRE) ([3]; 2 kg/ha): 100 | Herbicidal activity, visual: Weeds GSG (POST) ([3]; 4 kg/ha): 100 | Herbicidal activity, visual: Weeds GSG (PRE) ([3]; 4 kg/ha): 100 | Herbicidal activity, visual: Weeds ABG (POST) ([4]; 0.25 kg/ha): 60 | Herbicidal activity, visual: Weeds ABG (PRE) ([4]; 0.25 kg/ha): 100 | Herbicidal activity, visual: Weeds ABG (POST) ([4]; 0.5 kg/ha): 75 | Herbicidal activity, visual: Weeds ABG (PRE) ([4]; 0.5 kg/ha): 100 | Herbicidal activity, visual: Weeds ABG (POST) ([4]; 1 kg/ha): 83 | Herbicidal activity, visual: Weeds ABG (PRE) ([4]; 1 kg/ha): 100 | Herbicidal activity, visual: Weeds ABG (POST) ([4]; 2 kg/ha): 92 | Herbicidal activity, visual: Weeds ABG (PRE) ([4]; 2 kg/ha): 100 | Herbicidal activity, visual: Weeds ABG (POST) ([4]; 4 kg/ha): 95 | Herbicidal activity, visual: Weeds ABG (PRE) ([4]; 4 kg/ha): 100 | Herbicidal activity, visual: Weeds LCG (POST) ([5]; 0.25 kg/ha): 80 | Herbicidal activity, visual: Weeds LCG (PRE) ([5]; 0.25 kg/ha): 100 | Herbicidal activity, visual: Weeds LCG (POST) ([5]; 0.5 kg/ha): 90 | Herbicidal activity, visual: Weeds LCG (PRE) ([5]; 0.5 kg/ha): 100 | Herbicidal activity, visual: Weeds LCG (POST) ([5]; 1 kg/ha): 95 | Herbicidal activity, visual: Weeds LCG (PRE) ([5]; 1 kg/ha): 100 | Herbicidal activity, visual: Weeds LCG (POST) ([5]; 2 kg/ha): 100 | Herbicidal activity, visual: Weeds LCG (PRE) ([5]; 2 kg/ha): 100 | Herbicidal activity, visual: Weeds LCG (POST) ([5]; 4 kg/ha): 100 | Herbicidal activity, visual: Weeds LCG (PRE) ([5]; 4 kg/ha): 100 | Phytotoxicity, visual: Turfgrass PRG ([6]; 0.25 kg/ha): 0 | Phytotoxicity, visual: Turfgrass PRG ([6]; 0.5 kg/ha): 0 | Phytotoxicity, visual: Turfgrass PRG ([6]; 1 kg/ha): 0 | Phytotoxicity, visual: Turfgrass PRG ([6]; 2 kg/ha): 0 | Phytotoxicity, visual: Turfgrass PRG ([6]; 4 kg/ha): 0 | Phytotoxicity, visual: Turfgrass BTG ([7]; 0.25 kg/ha): 0 | Phytotoxicity, visual: Turfgrass BTG ([7]; 0.5 kg/ha): 0 | Phytotoxicity, visual: Turfgrass BTG ([7]; 1 kg/ha): 0 | Phytotoxicity, visual: Turfgrass BTG ([7]; 2 kg/ha): 0 | Phytotoxicity, visual: Turfgrass BTG ([7]; 4 kg/ha): 10 | Phytotoxic effect, visual assessment: Zoysiagrass Week 6 ([8]; Zoysia japonica (zoysiagrass), 6 weeks): 0.0 | Phytotoxic effect, visual assessment: Zoysiagrass Week 2 [8]: 2.7 | Phytotoxic effect, visual assessment: Zoysiagrass Week 4 [8]: 1.7 | Phytotoxic effect, visual assessment: Zoysiagrass Week 6 [8]: 1.0 | Phytotoxic effect, visual assessment: Zoysiagrass Week 2 ([8]; zoysiagrass (Zoysia japonica), 2 weeks): 0.0 | Phytotoxic effect, visual assessment: Zoysiagrass Week 4 ([8]; zoysiagrass (Zoysia japonica), 4 weeks): 0.0 | Phytotoxic effect, visual assessment: Zoysiagrass Week 6 ([8]; zoysiagrass (Zoysia japonica), 6 weeks): 0.0
